Assay results taken from publication PMC9332756, “Exploration of Diazaspiro Cores as Piperazine Bioisosteres in the Development of σ2 Receptor Ligands” (International Journal of Molecular Sciences, 2022).

What was measured:
σ1R [1] = settings: Figure 1; cited from earlier work
σ2R [2] = settings: Figure 1; cited from earlier work
σ1R [3] = molecular target: T1, σ1R (Cavia porcellus, UniProt Q60492); experiment: σ1R radioligand binding assay with [3H]-(+)-pentazocine, Guinea pig brain homogenates; settings: mean ± SEM, at least three experiments
T1 construct: from tissue; host or cells: Guinea pig brain homogenate
Protocol: (§1) Radioligand binding assays were conducted using [^125I]RHM-4 with rat liver homogenates for σ2R-binding properties and a σ1R assay using [^3H]-(+)-pentazocine with Guinea pig brain homogenates. Evaluation of the compounds in the in vitro radioligand binding studies was conducted using a two-step process. […] Compounds displaying ≥ 50% displacement of radioligand binding in σ1 and σ2 assays (Table 1) were chosen for full competition studies using 10 different concentrations of the displacer. A representative competition curve at σ1 and σ2 receptors is shown for compound 2t in Figure 2.
(§2) For screening, [^3H]-(+)-pentazocine (~50,000 cpm) or [^125I]RHM-4 (~200,000 cpm) was mixed with 100 nM of tested compounds. Guinea pig brain homogenates (100 µg) or rat liver homogenates (15 µg) were added to mixture and incubated at 37 °C for 90 min. The mixture was filtered by harvester and washed 3 times using cold washing buffer (10 mM Tris-HCl, 150 mM NaCl). Collected filter was mixed with 3 mL of microscintTM20 and counted 1 min/well using beta counter. […] After that, protein was added and incubated at 37 °C for 90 min. The bound form was filtered by Whatman CF/C filter which was soaked in 1% of polyethyleneimine (PEI) in DW and then filters were washed tree times with cold washing buffer. The non-specific binding was determined in the presence of 10 µM of haloperidol or cold RHM-4. Filter was collected and read by scintillation counting (MicroBeta2 ®, PerkinElmer, Beaconsfield, UK) or gamma counter (PerkinElmer, Beaconsfield, UK). The data were analyzed using PRISM 8 (GraphPad Inc., San Diego, CA, USA).

σ2R [4] = molecular target: T2, σ2R (Rattus norvegicus, UniProt Q5U3Y7); experiment: σ2R radioligand binding assay with [125I]RHM-4, rat liver homogenates; settings: for Ki: rat liver homogenates, [125I]RHM-4, mean ± SEM, at least three experiments; for σ1/σ2 Ratio: ratio of Ki σ1R to Ki σ2R
T2 construct: from tissue; host or cells: rat liver homogenate
T2 sequence (Q5U3Y7 1-176): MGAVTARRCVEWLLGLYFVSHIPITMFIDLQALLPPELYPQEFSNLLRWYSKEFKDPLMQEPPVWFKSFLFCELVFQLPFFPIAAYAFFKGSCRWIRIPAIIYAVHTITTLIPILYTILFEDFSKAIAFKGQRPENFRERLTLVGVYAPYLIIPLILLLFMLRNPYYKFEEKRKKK
Protocol: as §1, §2

σ2R [5] = molecular target: T2, σ2R; experiment: as above; settings: three-point screening assay (10 nM, 100 nM, 1 μM)

T1 sequence (Q60492 whole entry): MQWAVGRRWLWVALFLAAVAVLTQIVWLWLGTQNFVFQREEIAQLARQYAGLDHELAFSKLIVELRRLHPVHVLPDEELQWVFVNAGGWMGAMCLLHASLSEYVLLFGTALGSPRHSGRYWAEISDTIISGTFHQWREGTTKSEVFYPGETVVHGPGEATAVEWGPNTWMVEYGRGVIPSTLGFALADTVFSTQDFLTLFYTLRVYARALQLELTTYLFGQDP

SMILES | Ki (σ1R [1]) [nM] | Ki (σ2R [2]) [nM] | Ki (σ1R [3]) [nM] | Ki (σ2R [4]) [nM] | σ1/σ2 Ratio (σ2R [4]) | affinity for the σ2R (in words) (σ2R [5])
COc1cc2c(cc1OC)CN(CCCCNC(=O)c1cc(I)cc(OC)c1OC)CC2 [RHM-4] | 554 | 1 |  |  |  | 
Fc1ccc(-n2cc(CCCCN3CCC4(CC3)OCc3ccccc34)c3ccccc32)cc1 [Siramesine] | 17 | 0.12 |  |  |  | 
CCN(c1ccc(F)cc1)C1CN(CCCCn2c(=O)n(C)c3ccccc32)C1 [Compound 2u] |  |  | 279 ± 30.7 | 18.8 ± 1.6 | 15 | 
Cn1c(=O)n(CCCCN2CCCN(c3ccc(F)cc3)CC2)c2ccccc21 [Compound 2t] |  |  | 255 ± 29.9 | 3.8 ± 0.9 | 67 | 
Cn1c(=O)n(CCCCN2CC3CCCC(C2)N3c2ccc(F)cc2)c2ccccc21 [Compound 2p] |  |  |  |  |  | low affinity
COc1cccc2c1CCCC2CCCN1CCN(C2CCCCC2)CC1 (stereo not shown) [PB28, 1-cyclohexyl-4-[3-(5-methoxy-1,2,3,4-tetrahydronaphthalen-1-yl)propyl]piperazine] | 0.38 ± 0.1 | 0.68 ± 0.2 |  |  |  | 
Cn1c(=O)n(CCCCN2CCN(c3ccc(F)cc3)CC2)c2ccccc21 [Compound 1, reference compound] |  |  | 251 ± 48.1 |  | 279 | 
COc1ccc(C)cc1NC(=O)OC1CC2CCCC(C1)N2CCCCCCN (stereo not shown) [SV 119] | 1420 ± 439 | 5.19 ± 0.8 |  |  |  | 
Cn1c(=O)n(CCCCN2CC3CC2CN3c2ccc(F)cc2)c2ccccc21 (stereo not shown) [Compound 2r] |  |  | 712 ± 135 | 10.7 ± 1.8 | 66 | 
Cn1c(=O)n(CCCCN2CCC3(CC2)CCN(c2ccccc2F)CC3)c2ccccc21 [Compound 2e] |  |  | 659 ± 84.2 | 24.4 ± 3.3 | 27 | 
Cn1c(=O)n(CCCCN2CC3CCC(C2)N3c2ccc(F)cc2)c2ccccc21 [Compound 2q] |  |  |  |  |  | low affinity
Cn1c(=O)n(CCCCN2CC3(C2)CN(c2ccc(F)cc2)C3)c2ccccc21 [Compound 2o] |  |  | 45.9 ± 6.8 | 40 ± 3.2 | 1.1 | 
Cn1c(=O)n(CCCCN2CC3CCN(c4ccc(F)cc4)C3C2)c2ccccc21 (stereo not shown) [Compound 2s] |  |  |  |  |  | low affinity
Cn1c(=O)n(CCCCN2CC3(C2)CN(c2ccccc2F)C3)c2ccccc21 [Compound 2n] |  |  | 20.5 ± 3.3 | 41.8 ± 7.5 | 0.5 | 
Cn1c(=O)n(CCCCN2CCN(c3cccc(F)c3)CC2)c2ccccc21 [Compound 7, reference compound] |  |  | 702 ± 272 | 2 ± 0.6 | 351 | 
